Assay results: patent publication US8030336B2, “Nicotinamide-based kinase inhibitors” (YM Biosciences Australia Pty Ltd, priority 2002, dated 2011)

How the values were obtained:
Type in all cases: biochemical
human JAK2 = target: T1, human JAK2 (Homo sapiens, UniProt O60674); assay: JAK2 kinase assay (ELISA or Alphascreen); settings: read-out: Jak2 inhibition of enzyme activity
T1 construct: The kinase domain of human JAK2 was amplified from U937mRNA; His tag (from the pFastBac HTc vector) (N); made in house; host or cells: baculovirus; Sf9 for virus, High Five insect cells for production
T1 sequence (O60674 849-1124 limits assumed): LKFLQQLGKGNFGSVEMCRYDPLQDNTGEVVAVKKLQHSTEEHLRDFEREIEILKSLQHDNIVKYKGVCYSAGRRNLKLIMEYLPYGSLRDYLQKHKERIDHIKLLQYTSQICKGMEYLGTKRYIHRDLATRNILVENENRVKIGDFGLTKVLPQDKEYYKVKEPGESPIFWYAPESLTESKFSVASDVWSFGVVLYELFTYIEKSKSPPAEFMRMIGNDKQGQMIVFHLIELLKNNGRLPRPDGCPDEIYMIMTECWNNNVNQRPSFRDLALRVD
How it was run: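 His-tagged human JAK2 kinase domain from baculovirus-infected insect cells, ~1.5 μg per assay, in 50 mM HEPES pH 7.5, 10 mM MgCl2, 150 mM NaCl, with 10 μM–1 mM ATP and 5 μM biotinylated peptide substrate. Phosphotyrosine detected by PY20 ELISA or AlphaScreen.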

human JAK3 = target: T2, human JAK3 (Homo sapiens, UniProt P52333); assay: JAK3 kinase assay (ELISA or Alphascreen); settings: read-out: Jak3 inhibition of enzyme activity
T2 construct: The kinase domain of human JAK3 was amplified from U937mRNA; His tag (from the pFastBac HTb vector) (N); made in house; host or cells: baculovirus; Sf9 for virus, High Five insect cells for production
T2 sequence (P52333 822-1111 limits assumed): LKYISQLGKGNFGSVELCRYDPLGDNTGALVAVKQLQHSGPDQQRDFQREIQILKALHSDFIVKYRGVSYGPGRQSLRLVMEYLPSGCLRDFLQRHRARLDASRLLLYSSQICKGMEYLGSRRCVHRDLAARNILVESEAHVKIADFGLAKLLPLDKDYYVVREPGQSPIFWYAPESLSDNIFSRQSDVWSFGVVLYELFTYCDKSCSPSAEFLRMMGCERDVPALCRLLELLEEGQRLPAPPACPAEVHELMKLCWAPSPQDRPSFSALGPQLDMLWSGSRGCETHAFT
How it was run: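 His-tagged human JAK3 kinase domain from High Five cells, ~1.5 μg per assay, in 50 mM HEPES pH 7.5, 10 mM MgCl2, 150 mM NaCl, 10 μM-1 mM ATP, 5 μM biotinylated peptide substrate. Phosphotyrosine by PY20 ELISA or Alphascreen.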

abl = target: T3, abl (Homo sapiens, UniProt P00519); assay: abl kinase assay (ELISA or Alphascreen); settings: read-out: abl inhibition of enzyme activity
T3 sequence (P00519 242-493 limits assumed): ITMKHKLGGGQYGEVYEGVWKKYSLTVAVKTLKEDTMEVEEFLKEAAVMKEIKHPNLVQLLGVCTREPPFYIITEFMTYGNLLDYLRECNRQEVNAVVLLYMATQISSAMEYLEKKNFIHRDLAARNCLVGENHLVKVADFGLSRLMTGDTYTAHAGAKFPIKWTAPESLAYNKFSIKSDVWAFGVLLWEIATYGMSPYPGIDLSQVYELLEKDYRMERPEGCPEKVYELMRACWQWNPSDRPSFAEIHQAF
How it was run: (§1)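 Affinity-purified PTK domain (~1.5 μg) phosphorylated biotinylated peptide (5 μM final) in 50 mM HEPES pH 7.5, 10 mM MgCl2, 150 mM NaCl, 10 μM-1 mM ATP. Phosphotyrosine read by PY20 ELISA or Alphascreen.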

fes = fes (Homo sapiens, UniProt P07332); assay: fes kinase assay (ELISA or Alphascreen); settings: read-out: fes inhibition of enzyme activity
Chain of fes (P07332 561-822 limits assumed, species assumed): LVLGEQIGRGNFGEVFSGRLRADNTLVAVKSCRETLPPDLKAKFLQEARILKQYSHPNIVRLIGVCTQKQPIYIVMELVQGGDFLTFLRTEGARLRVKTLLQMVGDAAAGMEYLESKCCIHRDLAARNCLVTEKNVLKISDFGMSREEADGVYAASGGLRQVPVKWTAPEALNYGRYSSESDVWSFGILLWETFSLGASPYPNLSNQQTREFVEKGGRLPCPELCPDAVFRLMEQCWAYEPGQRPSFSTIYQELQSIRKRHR
How it was run: as §1

fms = target: T4, fms (Homo sapiens, UniProt P07333); assay: fms kinase assay (ELISA or Alphascreen); settings: read-out: fms inhibition of enzyme activity
T4 sequence (P07333 582-910 limits assumed): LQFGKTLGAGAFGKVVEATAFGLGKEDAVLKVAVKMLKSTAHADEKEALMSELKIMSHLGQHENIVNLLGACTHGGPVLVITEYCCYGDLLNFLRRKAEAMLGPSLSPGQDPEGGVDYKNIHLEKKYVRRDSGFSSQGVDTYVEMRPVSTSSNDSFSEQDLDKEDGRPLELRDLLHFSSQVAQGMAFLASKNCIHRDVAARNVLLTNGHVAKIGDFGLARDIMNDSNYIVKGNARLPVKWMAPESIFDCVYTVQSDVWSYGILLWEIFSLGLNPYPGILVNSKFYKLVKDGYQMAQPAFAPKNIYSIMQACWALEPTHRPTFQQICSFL
How it was run: as §1

hck = hck (Homo sapiens, UniProt P08631); assay: hck kinase assay (ELISA or Alphascreen); settings: read-out: hck inhibition of enzyme activity
Chain of hck (P08631 262-515 limits assumed, species assumed): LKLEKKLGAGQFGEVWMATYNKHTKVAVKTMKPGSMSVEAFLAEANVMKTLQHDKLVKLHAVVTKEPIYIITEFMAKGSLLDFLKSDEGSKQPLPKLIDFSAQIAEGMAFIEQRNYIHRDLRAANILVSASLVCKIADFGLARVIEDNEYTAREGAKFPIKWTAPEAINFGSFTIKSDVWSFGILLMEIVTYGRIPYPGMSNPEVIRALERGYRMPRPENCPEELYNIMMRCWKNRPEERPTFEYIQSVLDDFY
Description: Kinase assays were performed in a 96 well capture-based ELISA assay or in 384 well Optiplates (Packard) using an Alphascreen Protein Tyrosine Kinase kit. In either case using approximately 1.5 μg of affinity purified PTK domain in the presence of 50 mM HEPES, pH 7.5, 10 mM MgCl2, 150 mM NaCl and 10 μM-1 mM ATP. The biotinylated substrate biotin-EGPWLEEEEEAYGWMDF-NH2 (SEQ ID NO:9) (final concentration 5 μM) was used as substrate. In the ELISA assay tyrosine phosphorylation was quantitated following transfer to an avidin coated ELISA plate using peroxidase-linked anti-phosphotyrosine antibody PY20. In the Alphascreen assay, Alphascreen phosphotyrosine acceptor beads followed by streptavidin donor beads were added under subdued light. The ELISA plates were read on a BMG Fluorostar, the Alphascreen plates were read on a Packard Fusion Alpha. Inhibitors were added to the assays fifteen minutes prior to the addition of ATP. Inhibitors were added in aqueous […] concentrations never exceeding 1%.

Zap70 = target: T5, Zap70 (Homo sapiens, UniProt P43403); assay: Zap70 kinase assay (ELISA or Alphascreen); settings: read-out: Zap70 inhibition of enzyme activity
T5 sequence (P43403 338-600 limits assumed): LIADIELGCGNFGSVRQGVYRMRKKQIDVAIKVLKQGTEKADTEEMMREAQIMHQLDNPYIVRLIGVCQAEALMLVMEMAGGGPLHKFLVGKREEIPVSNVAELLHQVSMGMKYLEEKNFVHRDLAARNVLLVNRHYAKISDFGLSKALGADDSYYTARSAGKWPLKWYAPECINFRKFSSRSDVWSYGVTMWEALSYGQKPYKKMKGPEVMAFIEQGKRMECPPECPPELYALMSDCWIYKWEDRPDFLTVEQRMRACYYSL
How it was run: as §1

SMILES | inhibition at 10 µM (human JAK2) | inhibition at 10 µM (human JAK3) | inhibition at 10 µM (abl) | inhibition at 10 µM (fes) | inhibition at 10 µM (fms) | inhibition at 10 µM (hck) | inhibition at 10 µM (Zap70)
COc1cccc(-c2cncc(C(=O)Nc3ccc(OC)cc3OC)c2)c1 | < 50% | < 50% | < 50% | < 50% | < 50% | < 50% | –
Cc1cc(F)ccc1NC(=O)c1cncc(-c2cc(C)c(O)c(C)c2)c1 | < 50% | < 50% | ≥ 50% | < 50% | ≥ 50% | ≥ 50% | –
C[C@@H](NC(=O)c1cncc(-c2cccnc2)c1)c1ccccc1 | < 50% | < 50% | < 50% | < 50% | < 50% | < 50% | –
Cc1cc(-c2cncc(C(=O)Nc3ccccc3)c2)cc(C)c1O | < 50% | < 50% | < 50% | – | < 50% | ≥ 50% | < 50%
COc1cc(-c2cncc(C(=O)NC(C)CCc3ccccc3)c2)c(Cl)c(OC)c1OC (stereo not drawn) | < 50% | < 50% | < 50% | – | < 50% | < 50% | < 50%
O=C(Nc1ccccc1)c1cncc(-c2ccc(O)cc2)c1 | < 50% | < 50% | < 50% | – | < 50% | < 50% | < 50%
O=C(NCc1ccc(N2CCOCC2)cc1)c1cncc(-c2ccc3c(c2)OCO3)c1 | < 50% | < 50% | < 50% | < 50% | < 50% | < 50% | –
C[C@@H](NC(=O)c1cncc(-c2ccncc2)c1)c1ccccc1 | < 50% | < 50% | < 50% | – | < 50% | < 50% | ≥ 50%
COc1cccc(-c2cncc(C(=O)Nc3ccc(F)cc3C)c2)c1 | < 50% | < 50% | < 50% | < 50% | < 50% | ≥ 50% | –
Cc1ccccc1NC(=O)c1cncc(-c2cc(C)c(O)c(C)c2)c1 | < 50% | < 50% | ≥ 50% | – | ≥ 50% | ≥ 50% | < 50%
COc1cc(-c2cncc(C(=O)Nc3cc(C)ccc3C)c2)c(Cl)c(OC)c1OC | < 50% | < 50% | < 50% | < 50% | ≥ 50% | ≥ 50% | –
COc1cc(-c2cncc(C(=O)N[C@H](C)c3ccccc3)c2)c(Cl)c(OC)c1OC | < 50% | < 50% | < 50% | < 50% | < 50% | < 50% | –
COc1cc(-c2cncc(C(=O)Nc3cc(F)ccc3C)c2)ccc1O | < 50% | < 50% | ≥ 50% | < 50% | ≥ 50% | ≥ 50% | –
COc1cc(-c2cncc(C(=O)Nc3cc(C)ccc3C)c2)ccc1O | < 50% | < 50% | ≥ 50% | – | ≥ 50% | ≥ 50% | < 50%
COc1cc(NC(=O)c2cncc(-c3cccs3)c2)cc(OC)c1OC | < 50% | – | < 50% | < 50% | < 50% | < 50% | < 50%
Cc1cc(F)ccc1NC(=O)c1cncc(-c2ccc3c(c2)OCO3)c1 | < 50% | < 50% | < 50% | – | < 50% | < 50% | < 50%
COc1cccc(-c2cncc(C(=O)NC(C)CCc3ccccc3)c2)c1 (stereo not drawn) | < 50% | – | < 50% | < 50% | < 50% | < 50% | < 50%
COc1cccc(-c2cncc(C(=O)Nc3ccccc3)c2)c1 | < 50% | < 50% | < 50% | < 50% | < 50% | < 50% | –

Further lines, results first:

inhibition at 10 µM (human JAK2) | inhibition at 10 µM (human JAK3) | inhibition at 10 µM (abl) | inhibition at 10 µM (fes) | inhibition at 10 µM (fms) | inhibition at 10 µM (hck) | inhibition at 10 µM (Zap70) | SMILES
< 50% | < 50% | < 50% | – | < 50% | ≥ 50% | < 50% | Cc1ccc(C)c(NC(=O)c2cncc(-c3ccc(O)cc3)c2)c1
< 50% | < 50% | < 50% | < 50% | < 50% | < 50% | – | O=C(Nc1ccccc1)c1cncc(-c2ccc(F)cc2)c1
< 50% | – | < 50% | < 50% | < 50% | < 50% | < 50% | Cc1ccc(CNC(=O)c2cncc(-c3ccc(F)cc3)c2)cc1
< 50% | – | < 50% | < 50% | < 50% | < 50% | < 50% | CN(Cc1ccccc1)C(=O)c1cncc(-c2ccc(F)cc2)c1
< 50% | < 50% | < 50% | – | < 50% | < 50% | < 50% | C[C@H](NC(=O)c1cncc(-c2ccc(F)cc2)c1)c1ccccc1
< 50% | ≥ 50% | < 50% | – | < 50% | < 50% | < 50% | O=C(NCc1ccco1)c1cncc(-c2ccc(F)cc2)c1
< 50% | < 50% | < 50% | < 50% | < 50% | < 50% | – | O=C(NCc1ccc(Cl)c(Cl)c1)c1cncc(-c2ccc(F)cc2)c1
< 50% | < 50% | < 50% | ≥ 50% | < 50% | < 50% | – | O=C(NCc1cccc(F)c1)c1cncc(-c2cccs2)c1
< 50% | < 50% | < 50% | – | < 50% | < 50% | < 50% | COc1cc(NC(=O)c2cncc(-c3ccc(F)cc3)c2)cc(OC)c1OC
